The target of this experiment is T1, hT2R54 (Homo sapiens, UniProt P59534).
T1 construct: expressed in transfected cells; it overexpresses a promiscuous G protein
T1 sequence (P59534 1-338): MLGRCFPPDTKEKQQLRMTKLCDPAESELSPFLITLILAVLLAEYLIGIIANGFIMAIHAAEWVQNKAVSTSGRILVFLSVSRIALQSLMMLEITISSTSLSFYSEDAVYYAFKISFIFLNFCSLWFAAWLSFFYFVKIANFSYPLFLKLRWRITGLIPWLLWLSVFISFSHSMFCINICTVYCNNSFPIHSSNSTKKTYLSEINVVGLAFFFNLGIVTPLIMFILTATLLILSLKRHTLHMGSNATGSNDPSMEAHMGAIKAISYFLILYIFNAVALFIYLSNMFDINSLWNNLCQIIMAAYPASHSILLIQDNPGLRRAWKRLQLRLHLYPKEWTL
As to the kind of experiment: Cell-based assay for measuring hT2R54 inhibition (FLIPR calcium, Fluo4AM, acetaminophen as bitter agonist). Conditions: cells stably expressing hT2R54 and a promiscuous G protein, read-out: hT2R54 IC50. The gist of the method:
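Cells stably co-expressing hT2R54 and a promiscuous G protein were loaded with Fluo4AM and given acetaminophen dose series, alone or with fixed concentrations of test compound. On FLIPR, baseline was recorded for 10 s and fluorescence for 3 min after addition. IC50 is the concentration halving the acetaminophen-alone response.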

Read-outs that look alike come from different tables or passages of the source.

As to `COc1cc2c(cc1NC(=O)CN1CCN(C(=O)Cc3ccccc3)CC1)OCO2` [compound 370], the IC50 (Table 2) stood at 0.4 µM.

Consider `COc1cc2c(cc1NC(=O)CN1CCN(C(=O)Cc3ccc(F)cc3)CC1)OCO2` [compound 371], for which, for the setting “Table 2”, the IC50 was determined as 0.9 µM.

Take `COc1cc2c(cc1NC(=O)CN1CCN(C(=O)Cc3cccc(O)c3)CC1)OCO2` [compound 372]: the IC50 (Table 2) came out at 0.4 µM.

Take `COc1cc2c(cc1NC(=O)CN1CCN(C(=O)Cc3ccc(O)cc3)CC1)OCO2` [compound 373]: the IC50 (Table 2) worked out at 0.7 µM.

Consider `COc1cccc(CC(=O)N2CCN(CC(=O)Nc3cc4c(cc3OC)OCO4)CC2)c1` [compound 374], for which the IC50 (Table 2) is 0.3 µM.

In the case of `COc1ccc(CC(=O)N2CCN(CC(=O)Nc3cc4c(cc3OC)OCO4)CC2)cc1` [compound 375], where the note is “Table 2”, the IC50 was 1 µM.

As to `COc1cc2c(cc1NC(=O)CN1CCN(C(=O)Cc3ccccc3F)CC1)OCO2` [compound 376], under “Table 2”, the half-inhibitory concentration (IC50) is 0.2 µM.

As for `COc1cc2c(cc1NC(=O)CN1CCN(C(=O)Cc3cccc(F)c3)CC1)OCO2` [compound 377], the IC50 (Table 2) amounted to 0.2 µM.

In the case of `COc1cc2c(cc1NC(=O)CN1CCN(C(=O)Cc3ccncc3)CC1)OCO2` [compound 378], the IC50 (Table 2) came to 1.1 µM.

On to `COc1cc2c(cc1NC(=O)CN1CCN(C(=O)c3ccccc3)CC1)OCO2` [compound 379], for which the IC50 (Table 2) came to 0.4 µM.

On to `COc1cc2c(cc1NC(=O)CN1CCN(C(=O)c3ccc(O)cc3)CC1)OCO2` [compound 380], for which, under “Table 2”, the IC50 came to 0.8 µM.

As for `COc1cc2c(cc1NC(=O)CN1CCN(C(=O)c3ccc(O)c(O)c3)CC1)OCO2` [compound 381], the IC50 (Table 2) stood at 5 µM.

Take `COc1cc2c(cc1NC(=O)CN1CCN(C(=O)c3cccc(C#N)c3)CC1)OCO2` [compound 382]: where the note is “Table 2”, the IC50 is 0.4 µM.

Turning to `COc1cc2c(cc1NC(=O)CN1CCN(C(=O)c3cccc(CO)c3)CC1)OCO2` [compound 383], the IC50 (Table 2) stood at 0.6 µM.

On to `COc1cc2c(cc1NC(=O)CN1CCN(C(=O)c3cc(C)oc3C)CC1)OCO2` [compound 384], for which the IC50 (Table 2) was determined as 0.2 µM.

`COc1cc2c(cc1NC(=O)CN1CCN(C(=O)c3cc[nH]n3)CC1)OCO2` [compound 385]: under “Table 2”, the IC50 came out at 0.7 µM.

`COc1cc2c(cc1NC(=O)CN1CCN(C(=O)c3ccoc3)CC1)OCO2` [compound 386]: the IC50 (Table 2) was determined as 0.2 µM.

For `COc1cc2c(cc1NC(=O)CN1CCN(C(=O)c3cnon3)CC1)OCO2` [compound 387], the IC50 (Table 2) is above 10 µM.

As to `COc1cc2c(cc1NC(=O)CN1CCN(C(=O)c3ncn[nH]3)CC1)OCO2` [compound 388], under “Table 2”, the IC50 is 2.6 µM.

Regarding `COc1cc2c(cc1NC(=O)CN1CCN(C(=O)c3cc(C)on3)CC1)OCO2` [compound 389], under “Table 2”, the 50% inhibitory concentration (IC50) was determined as 0.4 µM.

As to `COc1cc2c(cc1NC(=O)CN1CCN(C(=O)c3n[nH]cc3C)CC1)OCO2` [compound 390], the IC50 (Table 2) was 2.7 µM.

`COc1cc2c(cc1NC(=O)CN1CCN(C(=O)c3nc(C)c[nH]3)CC1)OCO2` [compound 391]: the IC50 (Table 2) was determined as 0.2 µM.

For the compound `COc1cc2c(cc1NC(=O)CN1CCN(C(=O)c3c[nH]c(C)n3)CC1)OCO2` [compound 392], the IC50 (Table 2) was 1.3 µM.

In the case of `COc1cc2c(cc1NC(=O)CN1CCN(C(=O)c3ncc[nH]3)CC1)OCO2` [compound 393], the IC50 (Table 2) was determined as 0.2 µM.

Consider `COc1cc2c(cc1NC(=O)CN1CCN(C(=O)c3cc(C)c(C)o3)CC1)OCO2` [compound 395], for which the IC50 (Table 2) turned out to be 0.1 µM.

Consider `COCc1ccc(C(=O)N2CCN(CC(=O)Nc3cc4c(cc3OC)OCO4)CC2)o1` [compound 396], for which, where the note is “Table 2”, the IC50 is 0.1 µM.

Turning to `COCc1cc(C(=O)N2CCN(CC(=O)Nc3cc4c(cc3OC)OCO4)CC2)no1` [compound 397], for the setting “Table 2”, the IC50 was 0.77 µM.

On to `COc1cc2c(cc1NC(=O)CN1CCN(C(=O)c3ccc(CO)o3)CC1)OCO2` [compound 398], for which the IC50 (Table 2) worked out at 0.63 µM.

As to `COc1cc2c(cc1NC(=O)CN1CCN(C(=O)c3ncn[nH]3)CC1)OCO2` [compound 399], the IC50 (Table 2) was determined as 1.4 µM.

`COCc1cc(C(=O)N2CCN(CC(=O)Nc3cc4c(cc3OC)OCO4)CC2)no1` [compound 400]: the IC50 (Table 2) is 0.3 µM.

`COc1cc2c(cc1NC(=O)CN1CCN(C(=O)Cc3ccoc3)CC1)OCO2` [compound 401]: under “Table 2”, the IC50 stood at 0.13 µM.

For `COc1cc2c(cc1NC(=O)CN1CCN(C(=O)[C@H]3CCC(=O)O3)CC1)OCO2` [compound 402], the IC50 (Table 2) is 1.1 µM.

With `COc1cc2c(cc1NC(=O)C(C)N1CCN(C(C)=O)CC1)OCO2` (centres unmarked) [compound 403], the IC50 (Table 2) came out at 1.4 µM.

Take `COc1cc2c(cc1NC(=O)CN1CCN(C(=O)C3CCCC3)CC1)OCO2` [compound 404]: for the setting “Table 2”, the IC50 stood at 0.3 µM.

For the compound `COc1cc2c(cc1NC(=O)CN1CCN(C(=O)C3CCCCC3C)CC1)OCO2` (centres unmarked) [compound 405], the IC50 (Table 2) turned out to be 1 µM.

Consider `COc1cc2c(cc1NC(=O)CN1CCN(C(=O)C3CCOC3)CC1)OCO2` (centres unmarked) [compound 406], for which the IC50 (Table 2) was 1.8 µM.

`COc1cc2c(cc1NC(=O)CN1CCN(C(=O)C3CCN(C)C3)CC1)OCO2` (centres unmarked) [compound 407]: the IC50 (Table 2) is above 10 µM.

Turning to `COc1cc2c(cc1NC(=O)CN1CCN(C(=O)CC3CCCO3)CC1)OCO2` (centres unmarked) [compound 408], the IC50 (Table 2) came out at 0.88 µM.

With `COc1cc2c(cc1NC(=O)CN1CCN(C(=O)CC3CCCCO3)CC1)OCO2` (centres unmarked) [compound 409], the IC50 (Table 2) amounted to 0.5 µM.

Turning to `COc1cc2c(cc1NC(=O)CN1CCN(C(C)=O)CC1)CCC2` [compound 410], the IC50 (Table 2) worked out at 1.14 µM.

In the case of `CC(=O)c1cc2c(cc1NC(=O)C(C)N1CCN(C(=O)[C@@H]3CCCO3)CC1)OCCO2` (some centres unmarked) [compound 411], the IC50 (Table 2) worked out at 0.17 µM.

Consider `CC(=O)c1cc2c(cc1NC(=O)C(C)N1CCN(C(=O)[C@H]3CCCO3)CC1)OCCO2` (some centres unmarked) [compound 412], for which the IC50 (Table 2) turned out to be 0.17 µM.

For `COCc1ccc(C(=O)N2CCN(C(C)C(=O)Nc3cc4c(cc3C(C)=O)OCCO4)CC2)cc1` (centres unmarked) [compound 413], the IC50 (Table 2) stood at 0.19 µM.

As for `CCc1cc2c(cc1NC(=O)CN1CCN(C(=O)C3CCCO3)CC1)OCO2` (centres unmarked) [compound 414], the IC50 (Table 2) was found to be 7.6 µM.

Consider `CC(=O)c1cc2c(cc1NC(=O)CN1CCN(CC3CCCO3)CC1)OCO2` (centres unmarked) [compound 415], for which, for the setting “Table 3”, the IC50 is 1.3 µM.

Regarding `COc1cc2c(cc1NC(=O)CN1CCN(CC3CCCO3)CC1)OCO2` (centres unmarked) [compound 416], the IC50 (Table 3) came out at 4 µM.

With `CC(=O)c1cc2c(cc1NC(=O)CN1CCCCC1)OCO2` [compound 417], the IC50 (Table 4) is 0.439 µM.

For `CC(=O)c1cc2c(cc1NC(=O)CN1CCC(C)CC1)OCO2` [compound 418], the IC50 (Table 4) is 0.183 µM.

For the compound `CCOC(=O)[C@H]1CCCCN1CC(=O)Nc1cc2c(cc1C(C)=O)OCO2` [compound 419], the IC50 (Table 4) worked out at 0.135 µM.

For the compound `CCOC(=O)[C@H]1CCCN1CC(=O)Nc1cc2c(cc1C(C)=O)OCO2` [compound 420], the IC50 (Table 4) was 0.1 µM.

As to `CC(=O)c1cc2c(cc1NC(=O)CN1CCC(=O)CC1)OCO2` [compound 421], the IC50 (Table 4) turned out to be 0.187 µM.

Consider `CC(=O)c1cc2c(cc1NC(=O)CN1CCSCC1)OCO2` [compound 422], for which the IC50 (Table 4) worked out at 0.05 µM.

As to `CC(=O)c1cc2c(cc1NC(=O)CN1CCOc3ccccc31)OCO2` [compound 423], the IC50 (Table 4) stood at 1 µM.

Consider `CC(=O)c1cc2c(cc1NC(=O)CN1CCC(O)C1)OCO2` (centres unmarked) [compound 424], for which, for the setting “Table 4”, the IC50 came to 1.59 µM.

In the case of `COCCCN(C)CC(=O)Nc1cc2c(cc1C(C)=O)OCO2` [compound 425], the IC50 (Table 4) is 0.643 µM.

As for `COCCN(C)CC(=O)Nc1cc2c(cc1C(C)=O)OCO2` [compound 426], the IC50 (Table 4) is 1.15 µM.

As to `CCN(CCCOC)CC(=O)Nc1cc2c(cc1C(C)=O)OCO2` [compound 427], the IC50 (Table 4) came to 0.373 µM.

Consider `CCOC(=O)C1CN(C(=O)OC(C)(C)C)CCN1CC(=O)Nc1cc2c(cc1C(C)=O)OCO2` (centres unmarked) [compound 428], for which the IC50 (Table 4) stood at 0.65 µM.

Regarding `CC(=O)c1cc2c(cc1NC(=O)CN1CCCC(NC(=O)OC(C)(C)C)C1)OCO2` (centres unmarked) [compound 429], under “Table 4”, the IC50 amounted to 1.28 µM.

For `CC(=O)c1cc2c(cc1NC(=O)CN1CCC(NC(=O)OC(C)(C)C)CC1)OCO2` [compound 430], the IC50 (Table 4) came to 0.162 µM.

Turning to `CC(=O)c1cc2c(cc1NC(=O)C(C)N1CCN(C(=O)OC(C)(C)C)CC1)OCO2` (centres unmarked) [compound 431], the IC50 (Table 4) is 0.9 µM.

With `CC(=O)c1cc2c(cc1NC(=O)CCN1CCOCC1)OCO2` [compound 432], the IC50 (Table 4) amounted to 1.92 µM.

Consider `CC(=O)c1cc2c(cc1NC(=O)C(C)N1CCC(O)CC1)OCCO2` (centres unmarked) [compound 433], for which, for the setting “Table 4”, the IC50 came out at 0.22 µM.

`COC(=O)c1cc2c(cc1NC(=O)CN1CCC(O)CC1)OCO2` [compound 434]: the IC50 (Table 4) was determined as 0.248 µM.

Take `COC(=O)c1cc2c(cc1NC(=O)CN1CCC(OC)CC1)OCO2` [compound 435]: the IC50 (Table 4) was determined as 0.419 µM.

With `COC(=O)c1cc2c(cc1NC(=O)CN1CCOCC1)OCO2` [compound 436], under “Table 4”, the IC50 is 0.287 µM.

In the case of `COC(=O)c1cc2c(cc1NC(=O)CN1CCN(C(=O)OC(C)(C)C)CC1)OCO2` [compound 437], the IC50 (Table 4) was around 1 µM.

As to `COC(=O)c1cc2c(cc1NC(=O)CN1CCOCC1)OCCO2` [compound 438], the IC50 (Table 4) amounted to 0.198 µM.

`COC(=O)c1cc2c(cc1NC(=O)CN1CCOCC1)CCCC2` [compound 439]: the IC50 (Table 4) is around 2 µM.

As to `COc1cc2c(cc1NC(=O)CN1CCCCC1)OCO2` [compound 440], the IC50 (Table 4) was determined as 1.82 µM.

`COc1cc2c(cc1NC(=O)C(C)N1CCOCC1)OCO2` (centres unmarked) [compound 441]: for the setting “Table 4”, the IC50 stood at 1 µM.

The values are drawn from US12295396B2, “Antagonists of T2R54 and compositions and uses thereof” (Firmenich Incorporated, priority 2018, dated 2025).
